Reference: patent publication US20140142035A1, “METHODS AND COMPOSITIONS FOR MODULATING INSULIN REGULATION” (The Washington University, priority 2010, published 2014)
“Also recorded” adds a separate entry of the source. Where no end group is shown, it is not given here.

What was measured:
[1] = system: perfused rat pancreas; conditions: supraphysiologic concentrations; cited from earlier work
[2] = system: GIP/DT mice; experiment: Plasma insulin 5 minutes after i.p. glucose with peptides, GIP/DT mice; type: in vivo, mouse
Experimental: (§1) WT and DT mice were fasted for 16-h (Fast). As indicated, some mice were then administered an intraperitoneal injection of glucose (1 g/kg) with vehicle alone (BSA), GIP alone, Xenin-25 alone (Xen) or GIP plus Xenin-25 (G+X). […] Five minutes after injection of glucose, blood was collected and plasma prepared for insulin assays.
(§2) WT and DT mice were fasted for 16-h (Fast). As indicated, some mice were then administered an intraperitoneal injection of glucose (1 g/kg) with vehicle alone (BSA), GIP alone, Xenin-25 alone (Xen) or GIP plus Xenin-25 (G+X). Five minutes later, blood was collected. Plasma was then prepared and assayed for insulin.
(§3) Activation of parasympathetic neurons that innervate the pancreas can increase glucose-mediated insulin release in vivo. […] Wild type and GIP/DT mice were fasted overnight and then administered glucose in combination with GIP plus Xenin-25 by intraperitoneal injection. […] Blood was collected and plasma prepared 5 minutes after the glucose injection. […] Subsets of parasympathetic neurons that innervate the islets release vasoactive intestinal polypeptide (VIP) and pituitary adenylate cyclase activating peptide (PACAP) when activated. N-terminally truncated forms of PACAP [PACAP(6-38) or PACAP(6-27)] are competitive inhibitors of both VIP receptors (VPAC1 and VPAC2) as well as the PACAP-specific receptor Pac.

[3] = system: MIN6 cells; experiment: Insulin release assay with MIN6 cells; type: cell-based; conditions: for glucose-stimulated insulin release: MIN6 cells, 100 nM peptide, 60 min
Experimental: (§4) Primary mouse islets (panel A) or MIN6 cells (panel B) were incubated for 1-h in insulin assay buffer (KRB) containing 2.5 mM glucose. Islets or cells were then switched to KRB containing the indicated concentration of glucose with or without 100 nM GIP, GLP-1, Xenin-8, or Xenin-25. Sixty-minutes later, assay buffer was collected and the amount of insulin released determined by RIA.
(§5) Insulin release assays (static incubations) were conducted at the indicated concentration of glucose with islets isolated from WT C57BL/6J mice (Panel A; 5 islets per sample; 6 samples per condition) or Min6 cells (Panels B, C; 4 wells per condition). 100 nM GIP, GLP-1, or Xenin-25 (Xen) was added to some samples in Panels A, B. Peptides were added at the indicated concentrations in Panels C.
Next, studies were performed with MIN6 cells, a well-characterized, glucose-responsive, insulin-producing cell line. First, insulin release assays were conducted in the presence of peptides. […] Second, Min6 cells were treated with GLP-1, GIP, or Xenin-25 and Western blots conducted to determine whether the Xenin-25 increased MAPK signaling. […] Finally, insulin release assays were conducted in the presence of GIP plus Xenin-25.

[4] = system: MAPK signaling in Min6 Cells; experiment: Western blot for phosphorylated (active) MAPK in Min6 cells; type: cell-based; conditions: 10 minutes, 7.5 mM glucose, 100 nM peptide
[5] = system: primary mouse islets; experiment: Insulin release assay (static incubation) with primary mouse islets; type: cell-based; conditions: 100 nM peptide, 60 min, RIA
Experimental: as §4
as §4, with “islets” for “islets (panel A) or MIN6 cells (panel B)”, “Islets” for “Islets or cells”, “Xenin-8.” for “GIP, GLP-1, Xenin-8, or Xenin-25.”
as §5
Experiments were conducted to determine whether Xenin-25 acts directly on pancreatic islet beta cells (FIG. 23). Islets were isolated from wild type C57BL/6J mice and then subjected to insulin release assays (FIG. 23A) in the presence of different concentrations of glucose. […]

[6] = system: NONcNZO10/Ltj mice; experiment: Blood glucose after i.p. glucose plus peptides in mouse model of human T2DM; type: in vivo; conditions: glucose 1 g/kg i.p.
Experimental: Panel A depicts blood glucose levels in 5-week old pre-diabetic mice. Panel B depicts blood glucose levels in 16-week old diabetic mice. Panel C depicts the area under the curve for data in panels A and B as well as for a third experiment using 18-week old mice. * indicates P value<0.05 versus mice of the same age receiving BSA alone.
At the age indicated in FIG. 21, mice were fasted for 16-h. Blood glucose levels were measured before and at the indicated time after an intraperitoneal injection of glucose (1 g/kg) plus vehicle alone (BSA), GIP alone, Xenin-25 alone (Xen) or GIP plus Xenin-25 (GIP+Xen).

[7] = system: NONcNZO10/Ltj mice; experiment: Plasma insulin after i.p. glucose plus peptides in mouse model of human T2DM; type: in vivo; conditions: 8-week old pre-diabetic mice (FIG. 22A); 15 minutes after i.p. glucose 1 g/kg
Experimental: Panel A depicts plasma insulin levels in 8-week old pre-diabetic mice.
NONcNZO10/Ltj mice were fasted for 16-h. Blood was collected before (0) or 15 minutes after an intraperitoneal injection of glucose (1 g/kg) in the presence of vehicle alone (BSA), GIP alone, Xenin-25 alone (Xen) or GIP plus Xenin-25 (GIP+Xen). […] (FIG. 22A).

[8] = system: WT mice; experiment: Plasma insulin 5 minutes after i.p. glucose with peptides, wild type mice; type: in vivo, mouse
Experimental: as §1, §2, §3

Compound: Xenin: xenin protein, form (xenin-25 or fragment) not specified at the place (MLTKFETKSARVKGLSFHPKRPWIL; Xenin; UniProt P53621 1-25, looked up)
- glucose-stimulated insulin release [1]: increased glucose-stimulated insulin release

Compound: PACAP(6-38): N-terminally truncated PACAP; competitive inhibitor of VIP receptors (VPAC1 and VPAC2) and PACAP-specific receptor (FTDSYSRYRKQMAVKKYLAAVLGKRYKQRVKNK; ends and bridges not checked; UniProt P18509 137-169, looked up, fragment)
- inhibition of Xenin-25 potentiation of GIP-mediated increase in plasma insulin ([2]; given along with peptides (FIG. 25C), mouse line not stated): did not inhibit Xenin-25 potentiation of the GIP-mediated increase in plasma insulin levels

Compound: glucagon like peptide 1 (HAEGTFTSDVSSYLEGQAAKEFIAWLVKGR; ends and bridges not checked; UniProt P01275 98-127, looked up) [GLP-1, incretin hormone; synthetic GLP-1(7-36) used in vivo]
- glucose-stimulated insulin release [3]: glucose-stimulated insulin release was amplified; also recorded: potentiate glucose-stimulated insulin release
- phosphorylation of MAPK [4]: profound increases in phosphorylation of MAPK
- glucose-stimulated insulin release [5]: insulin release is potentiated; also recorded: potentiate glucose-stimulated insulin release

Compound: glucose-dependent insulinotropic polypeptide [GIP]
- blood glucose levels after i.p. glucose ([6]; 5-week old pre-diabetic mice): does not significantly improve blood glucose levels
- blood glucose levels after i.p. glucose ([6]; 16-week old diabetic mice): modest improvement in blood glucose levels
- glucose-stimulated insulin release [3]: glucose-stimulated insulin release was amplified; also recorded: potentiate glucose-stimulated insulin release
- insulin release, GIP with/without Xenin-25 ([3]; Min6 cells, peptides at indicated concentrations (FIG. 23C)): dose-dependent increase in insulin release
- plasma insulin levels [7]: little effect on plasma insulin levels
- phosphorylation of MAPK [4]: profound increases in phosphorylation of MAPK
- increase in plasma insulin levels ([8]; WT mice, 5 minutes after i.p. glucose 1 g/kg): greater than 3 fold
- plasma insulin levels ([2]; GIP/DT mice, 5 minutes after i.p. glucose 1 g/kg): much smaller increase in plasma insulin levels than was observed in WT mice
- glucose-stimulated insulin release [5]: insulin release is potentiated; also recorded: potentiate glucose-stimulated insulin release

Compound: CN1[C@@H]2CC[C@H]1C[C@@H](OC(=O)C(CO)c1ccccc1)C2 (stereo partly drawn) [atropine]
- effect on insulin release with GIP plus Xenin-25 ([8]; wild type mice, atropine i.p. 15 minutes before glucose): no statistically significant effect on insulin release
